What was measured:
[1] = biological target: Recombinant human serotonin receptor 5-HT1D (Homo sapiens, UniProt P28221); assay: GTPγS functional assay; type: biochemical
[2] = biological target: Recombinant human dopaminergic receptor D3 (Homo sapiens, UniProt P35462); assay: GTPγS functional assay; type: biochemical
[3] = biological target: Recombinant human dopaminergic receptor D2L (Homo sapiens, UniProt P14416); assay: GTPγS functional assay; type: biochemical; settings: in words
[4] = biological target: Recombinant human serotonin receptor 5-HT1B (Homo sapiens, UniProt P28222); assay: GTPγS functional assay; type: biochemical; settings: read-out: 5-HT1B agonism, EC50
Chain of Recombinant human serotonin receptor 5-HT1B (P28222 whole entry): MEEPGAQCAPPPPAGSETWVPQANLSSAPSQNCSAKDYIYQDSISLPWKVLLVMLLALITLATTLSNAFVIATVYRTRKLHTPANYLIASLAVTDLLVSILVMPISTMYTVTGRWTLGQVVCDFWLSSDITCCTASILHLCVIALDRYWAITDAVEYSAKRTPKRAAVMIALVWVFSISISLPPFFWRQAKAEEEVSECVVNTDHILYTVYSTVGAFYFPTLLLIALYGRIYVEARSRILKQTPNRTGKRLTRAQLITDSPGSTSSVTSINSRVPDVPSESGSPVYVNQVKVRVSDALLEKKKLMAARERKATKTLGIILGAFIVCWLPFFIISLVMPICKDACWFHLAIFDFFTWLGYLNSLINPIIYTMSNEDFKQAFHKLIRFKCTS

[5] = biological target: T1, Recombinant human serotonin 5-HT2A receptor (Homo sapiens, UniProt P28223); assay: Aequorin assay, receptor agonist/antagonist activity, CHO-K1 cells; type: cell-based
T1 construct: expressed in transfected cells; host or cells: CHO-K1 cells co-expressing mitochondrial apoaequorin
T1 sequence (P28223 whole entry): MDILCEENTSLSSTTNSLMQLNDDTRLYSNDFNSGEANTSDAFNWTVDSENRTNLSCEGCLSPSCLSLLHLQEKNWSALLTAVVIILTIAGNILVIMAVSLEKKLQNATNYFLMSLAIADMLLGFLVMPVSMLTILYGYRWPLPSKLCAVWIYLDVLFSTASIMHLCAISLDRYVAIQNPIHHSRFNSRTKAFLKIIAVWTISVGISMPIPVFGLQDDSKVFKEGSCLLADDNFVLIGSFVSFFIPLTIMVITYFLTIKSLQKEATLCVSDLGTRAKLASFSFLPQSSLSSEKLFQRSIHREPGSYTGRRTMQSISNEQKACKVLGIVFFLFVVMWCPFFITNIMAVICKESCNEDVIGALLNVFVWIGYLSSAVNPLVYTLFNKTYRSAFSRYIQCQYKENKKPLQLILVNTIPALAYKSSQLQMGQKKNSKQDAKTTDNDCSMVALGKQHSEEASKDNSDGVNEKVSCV
Experimental: (§1) Compound 5A was synthesized as described above and assayed for receptor activity against a panel of dopaminergic and serotoninergic receptors. Recombinant human receptors serotonin 5-HT2A, 5-HT2B were expressed in CHO-K1 cells and activity (receptor agonist/antagonist activity) was assayed using an Aequorin assay (coexpression of mitochondrial apoaequorin) and Compound 5a at a concentration of 0.10 nM to 20,000 nM for agonist activity and 0.005 nM to 10,000 nM for antagonist activity. […]. The preserved 5-HT2B antagonism activity is hypothesized to a decrease or minimized occurrence of fibrosis (cardiac and non-cardiac) as it is thought that 5-HT2B agonism is responsible for this undesirable side-effect in other iso-ergoline compounds. […]. A decreased agonist activity towards the D3 receptor by Compound 5a is likely to produce minimal or decreased hallucinogenic effects. […].

[6] = biological target: T2, Recombinant human serotonin 5-HT2B receptor (Homo sapiens, UniProt P41595); assay: as above; type: cell-based
T2 construct: expressed in transfected cells; host or cells: CHO-K1 cells co-expressing mitochondrial apoaequorin
T2 sequence (P41595 whole entry): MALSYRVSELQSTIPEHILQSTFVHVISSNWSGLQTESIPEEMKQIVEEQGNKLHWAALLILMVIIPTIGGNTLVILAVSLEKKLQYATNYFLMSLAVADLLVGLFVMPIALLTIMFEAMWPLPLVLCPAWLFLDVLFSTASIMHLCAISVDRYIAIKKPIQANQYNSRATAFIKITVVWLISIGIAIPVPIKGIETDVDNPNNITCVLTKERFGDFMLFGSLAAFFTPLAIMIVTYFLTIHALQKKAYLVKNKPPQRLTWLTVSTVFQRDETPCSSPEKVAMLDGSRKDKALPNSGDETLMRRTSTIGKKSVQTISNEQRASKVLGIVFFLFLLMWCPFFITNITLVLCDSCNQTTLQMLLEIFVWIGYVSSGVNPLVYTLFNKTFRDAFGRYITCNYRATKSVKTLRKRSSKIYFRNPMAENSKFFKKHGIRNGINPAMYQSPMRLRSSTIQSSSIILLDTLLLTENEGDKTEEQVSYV
Experimental: as §1

[7] = biological target: T3, Recombinant human serotonin receptor 5-HT1A (Homo sapiens, UniProt P08908); assay: GTPγS functional assay; type: biochemical; settings: in words
T3 sequence (P08908 1-422): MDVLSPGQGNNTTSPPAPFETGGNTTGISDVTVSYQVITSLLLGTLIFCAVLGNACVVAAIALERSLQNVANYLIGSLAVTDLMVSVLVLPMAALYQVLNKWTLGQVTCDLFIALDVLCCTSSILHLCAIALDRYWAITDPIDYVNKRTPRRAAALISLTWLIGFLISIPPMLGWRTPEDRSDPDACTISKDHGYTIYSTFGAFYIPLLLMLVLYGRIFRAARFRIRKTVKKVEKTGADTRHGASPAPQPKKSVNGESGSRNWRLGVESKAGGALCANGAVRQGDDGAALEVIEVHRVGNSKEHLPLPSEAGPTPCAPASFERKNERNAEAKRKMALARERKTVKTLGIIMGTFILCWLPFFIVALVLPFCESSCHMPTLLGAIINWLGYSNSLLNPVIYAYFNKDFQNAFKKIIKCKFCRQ

Chain of Recombinant human serotonin receptor 5-HT1D (P28221 whole entry): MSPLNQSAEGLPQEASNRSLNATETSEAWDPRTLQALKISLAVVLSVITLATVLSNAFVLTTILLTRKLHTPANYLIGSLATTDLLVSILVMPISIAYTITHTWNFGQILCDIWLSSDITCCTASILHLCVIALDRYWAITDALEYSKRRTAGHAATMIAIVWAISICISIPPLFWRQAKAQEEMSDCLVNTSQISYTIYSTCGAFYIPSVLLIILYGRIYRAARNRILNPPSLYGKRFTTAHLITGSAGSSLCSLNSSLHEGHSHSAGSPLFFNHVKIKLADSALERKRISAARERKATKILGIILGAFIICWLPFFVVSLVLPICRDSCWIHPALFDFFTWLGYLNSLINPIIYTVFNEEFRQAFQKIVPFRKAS
Chain of Recombinant human dopaminergic receptor D3 (P35462 whole entry): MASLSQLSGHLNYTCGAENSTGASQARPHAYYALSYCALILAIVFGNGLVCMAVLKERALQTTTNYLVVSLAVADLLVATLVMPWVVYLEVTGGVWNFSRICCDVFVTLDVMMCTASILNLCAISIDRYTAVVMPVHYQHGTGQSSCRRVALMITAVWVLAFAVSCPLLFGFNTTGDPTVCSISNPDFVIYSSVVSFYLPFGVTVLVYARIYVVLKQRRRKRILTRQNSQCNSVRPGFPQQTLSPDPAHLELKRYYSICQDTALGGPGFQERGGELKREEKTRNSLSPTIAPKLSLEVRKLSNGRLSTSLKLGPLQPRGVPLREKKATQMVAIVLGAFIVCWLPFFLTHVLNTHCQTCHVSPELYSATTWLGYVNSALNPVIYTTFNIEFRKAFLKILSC
Chain of Recombinant human dopaminergic receptor D2L (P14416 whole entry): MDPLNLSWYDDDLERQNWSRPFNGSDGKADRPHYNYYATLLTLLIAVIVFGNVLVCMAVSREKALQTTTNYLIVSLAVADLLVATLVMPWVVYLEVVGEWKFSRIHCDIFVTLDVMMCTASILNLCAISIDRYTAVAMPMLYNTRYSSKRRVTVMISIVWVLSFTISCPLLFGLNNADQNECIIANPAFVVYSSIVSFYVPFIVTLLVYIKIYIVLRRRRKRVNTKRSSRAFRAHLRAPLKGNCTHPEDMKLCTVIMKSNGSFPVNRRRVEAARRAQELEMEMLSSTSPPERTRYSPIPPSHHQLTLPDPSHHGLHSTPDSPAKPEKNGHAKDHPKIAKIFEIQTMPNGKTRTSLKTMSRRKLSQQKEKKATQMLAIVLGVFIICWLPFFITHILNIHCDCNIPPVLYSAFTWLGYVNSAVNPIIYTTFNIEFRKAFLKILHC

CN1C[C@@H](NC(=O)N(CC(F)(F)F)CC(F)(F)F)C=C2c3cccc4[nH]cc(c34)C[C@H]21 [Compound 5A]
selectivity for 5-HT1D to 5-HT1B ([1]; ratio of EC50 values): 20 fold | EC50 ([1]; read-out: 5-HT1D agonism, EC50): 15 nM | EC50 ([2]; 0.005 nM to 10,000 nM, read-out: agonist activity towards the dopaminergic D3 receptor, EC50): 27 nM | dopaminergic receptor D3 agonism ([2]; in words, compared to lisuride): weaker dopaminergic receptor D3agonism | D2L agonist activity (Emax) compared to lisuride [3]: comparable D2L agonist activity (Emax) | EC50 [4]: 287 nM | EC50 ([5]; agonist mode, 0.10 nM to 20,000 nM): 5020 nM | 5-HT2A receptor agonist activity ([5]; in words, compared to lisuride): weak 5-HT2A receptor agonist activity | IC50 ([6]; antagonist mode, 0.005 nM to 10,000 nM, read-out: 5-HT2B antagonism activity, 1050): 190 nM | 5-HT2B receptor activity ([6]; in words): 5-HT2B antagonist | agonistic activity towards the 5-HT1A receptor [7]: weak/moderate agonistic activity

Reference: US8946420B2, “Neuromodulatory compounds” (Map Pharmaceuticals, Inc., priority 2011, dated 2015)
